Reference: ChEMBL document CHEMBL1909046, “DrugMatrix in vitro pharmacology data”

Columns and labels:
[1] = biological target: Adenosine receptor A2a (Homo sapiens, UniProt P29274); experiment: DRUGMATRIX: Adenosine A2A radioligand binding (ligand: […]); format: cell membranes, HEK293, Membrane; conditions: hek293; Not Active = under 50% inhibition at 10 µM
[2] = biological target: T1, Interstitial collagenase (Homo sapiens, UniProt P03956); experiment: biochemical; format: tissue-based, Rheumatoid synovial fibroblasts;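 also: MMP-1 enzyme inhibition assay using a peptide substrate; in other assays of this panel Not Active means under 50% inhibition at 10 µM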
T1 sequence (P03956 whole entry): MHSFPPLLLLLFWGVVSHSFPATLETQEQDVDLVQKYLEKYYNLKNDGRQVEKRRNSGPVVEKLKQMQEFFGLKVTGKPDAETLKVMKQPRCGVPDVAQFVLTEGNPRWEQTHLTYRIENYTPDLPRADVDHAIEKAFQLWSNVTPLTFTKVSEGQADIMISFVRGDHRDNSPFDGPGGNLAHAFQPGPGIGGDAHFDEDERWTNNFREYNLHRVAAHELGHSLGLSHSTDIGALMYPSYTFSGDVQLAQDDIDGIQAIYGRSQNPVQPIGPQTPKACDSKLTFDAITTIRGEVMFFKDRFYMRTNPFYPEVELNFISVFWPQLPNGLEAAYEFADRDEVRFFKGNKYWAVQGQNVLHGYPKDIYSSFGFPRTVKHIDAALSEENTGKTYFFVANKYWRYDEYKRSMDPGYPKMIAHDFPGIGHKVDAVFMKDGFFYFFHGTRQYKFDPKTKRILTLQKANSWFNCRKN

[3] = DRUGMATRIX: Serotonin (5-Hydroxytryptamine) 5-HT3 radioligand binding (ligand: [3H] GR-65630); format: cell membranes, Membrane; conditions: hek293; Not Active = under 50% inhibition at 10 µM
[4] = biological target: T2, Androgen receptor (Rattus norvegicus, UniProt P15207); also: in other assays of this panel Not Active means under 50% inhibition at 10 µM
T2 sequence (P15207 whole entry): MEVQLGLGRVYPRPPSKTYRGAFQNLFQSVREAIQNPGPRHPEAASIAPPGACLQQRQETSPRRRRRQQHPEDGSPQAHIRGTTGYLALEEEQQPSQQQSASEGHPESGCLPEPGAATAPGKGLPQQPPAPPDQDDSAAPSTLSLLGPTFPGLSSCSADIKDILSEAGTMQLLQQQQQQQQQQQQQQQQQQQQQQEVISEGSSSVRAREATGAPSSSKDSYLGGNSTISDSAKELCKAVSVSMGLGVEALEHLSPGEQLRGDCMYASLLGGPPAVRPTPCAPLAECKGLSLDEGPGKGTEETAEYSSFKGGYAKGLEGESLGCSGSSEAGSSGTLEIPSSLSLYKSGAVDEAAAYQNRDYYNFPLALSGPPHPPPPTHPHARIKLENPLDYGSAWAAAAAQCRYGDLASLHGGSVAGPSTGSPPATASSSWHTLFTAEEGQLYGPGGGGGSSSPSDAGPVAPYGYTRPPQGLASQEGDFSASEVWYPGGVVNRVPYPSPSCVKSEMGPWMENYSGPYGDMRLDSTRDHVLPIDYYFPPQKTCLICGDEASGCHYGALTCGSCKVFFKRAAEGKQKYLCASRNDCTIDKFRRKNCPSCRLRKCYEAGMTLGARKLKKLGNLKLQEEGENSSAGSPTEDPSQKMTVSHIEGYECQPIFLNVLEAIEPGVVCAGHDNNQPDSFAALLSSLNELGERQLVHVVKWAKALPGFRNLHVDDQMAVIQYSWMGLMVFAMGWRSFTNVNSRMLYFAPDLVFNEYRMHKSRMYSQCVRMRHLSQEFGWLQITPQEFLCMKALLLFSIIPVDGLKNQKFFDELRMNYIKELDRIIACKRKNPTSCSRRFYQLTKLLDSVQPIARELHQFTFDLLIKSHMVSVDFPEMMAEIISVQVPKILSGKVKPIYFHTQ

[5] = biological target: T3, Polyunsaturated fatty acid lipoxygenase ALOX15 (Oryctolagus cuniculus, UniProt P12530); experiment: biochemical; format: tissue-based, Reticulocytes; conditions: reticulocytes;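 also: inhibition of 15-lipoxygenase enzyme activity measured with linoleic acid as the substrate; in other assays of this panel Not Active means under 50% inhibition at 10 µM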
T3 sequence (P12530 whole entry): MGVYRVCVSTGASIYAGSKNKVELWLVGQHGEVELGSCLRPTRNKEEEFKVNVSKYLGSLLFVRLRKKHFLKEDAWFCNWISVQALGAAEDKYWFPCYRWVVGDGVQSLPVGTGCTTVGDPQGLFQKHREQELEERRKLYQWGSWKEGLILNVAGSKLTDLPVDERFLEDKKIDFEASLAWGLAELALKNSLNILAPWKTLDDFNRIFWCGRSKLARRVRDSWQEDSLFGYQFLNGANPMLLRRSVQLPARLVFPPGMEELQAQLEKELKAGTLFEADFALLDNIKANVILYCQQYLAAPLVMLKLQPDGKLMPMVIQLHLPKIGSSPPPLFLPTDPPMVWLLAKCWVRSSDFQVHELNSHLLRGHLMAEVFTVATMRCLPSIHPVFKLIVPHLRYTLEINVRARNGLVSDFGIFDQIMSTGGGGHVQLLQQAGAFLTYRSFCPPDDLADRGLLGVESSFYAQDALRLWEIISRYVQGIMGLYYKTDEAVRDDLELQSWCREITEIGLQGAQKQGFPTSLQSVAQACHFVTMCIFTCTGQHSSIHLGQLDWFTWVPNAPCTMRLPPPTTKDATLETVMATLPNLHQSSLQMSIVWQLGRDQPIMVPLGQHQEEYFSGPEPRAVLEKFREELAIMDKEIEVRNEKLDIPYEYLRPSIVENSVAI

[6] = biological target: Epidermal growth factor receptor (Homo sapiens, UniProt P00533); experiment: DRUGMATRIX: Protein Tyrosine Kinase, EGF Receptor enzyme inhibition (substrate: Poly(Glu:Tyr)); format: cell-based, Insect cells; conditions: insect cells; Not Active = under 50% inhibition at 10 µM

Sequence of Adenosine receptor A2a (P29274 whole entry): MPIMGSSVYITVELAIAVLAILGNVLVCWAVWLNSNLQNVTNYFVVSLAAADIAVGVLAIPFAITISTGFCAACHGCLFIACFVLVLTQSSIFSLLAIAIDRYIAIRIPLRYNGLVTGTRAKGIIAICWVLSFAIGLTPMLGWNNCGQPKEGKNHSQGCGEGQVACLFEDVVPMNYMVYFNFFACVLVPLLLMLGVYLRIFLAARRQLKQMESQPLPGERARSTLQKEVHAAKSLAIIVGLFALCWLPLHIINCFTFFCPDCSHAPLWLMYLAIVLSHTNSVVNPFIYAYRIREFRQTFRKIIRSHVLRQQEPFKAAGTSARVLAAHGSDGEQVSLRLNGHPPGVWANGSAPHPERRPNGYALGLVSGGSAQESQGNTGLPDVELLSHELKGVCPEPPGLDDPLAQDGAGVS

CC(C)=CCC/C(C)=C/CO [GERANIOL]
Not Active: IC50 [1] | IC50 [2] | IC50 [3] | Ki [3] | IC50 [4] | IC50 [5] | IC50 [6]

C[C@@H]1CC[C@@]2(OC1)O[C@H]1[C@@H](O)[C@H]3[C@@H]4CC[C@H]5C[C@@H](O[C@@H]6O[C@H](CO)[C@H](O[C@@H]7O[C@H](CO)C(O)[C@H](O[C@@H]8OC[C@@H](O)[C@H](O)[C@H]8O)[C@H]7O[C@@H]7O[C@H](CO)[C@H](O)[C@H](O[C@@H]8O[C@H](CO)[C@@H](O)[C@H](O)[C@H]8O)[C@H]7O)[C@H](O)[C@H]6O)[C@H](O)C[C@]5(C)[C@H]4CC[C@]3(C)[C@H]1[C@@H]2C (some centres not stated) [DIGITONIN]
Not Active: IC50 [1] | IC50 [2] | IC50 [3] | Ki [3] | IC50 [4] | IC50 [5] | IC50 [6]

O=C1CN=C(c2ccccc2Cl)c2cc([N+](=O)[O-])ccc2N1 [CLONAZEPAM]
Not Active: IC50 [1] | IC50 [2] | IC50 [3] | Ki [3] | IC50 [4] | IC50 [5] | IC50 [6]

AURANOFIN
Not Active: IC50 [1] | Ki [1] | IC50 [2] | Ki [2] | IC50 [3] | Ki [3] | IC50 [4] | Ki [4] | IC50 [5] | Ki [5] | IC50 [6] | Ki [6]

CC(C(=O)O)c1ccc2oc(-c3ccc(Cl)cc3)nc2c1 (configuration not stated) [BENOXAPROFEN]
Not Active: IC50 [1] | IC50 [2] | IC50 [3] | Ki [3] | IC50 [4] | IC50 [5] | IC50 [6]

O=c1cc(N2CCOCC2)oc2c(-c3ccccc3)cccc12 [LY-294002]
Not Active: IC50 [1] | IC50 [2] | IC50 [3] | Ki [3] | IC50 [4] | IC50 [5]

Nc1ccn([C@@H]2O[C@H](CO)[C@@H](O)[C@@H]2O)c(=O)n1 [CYTARABINE]
Not Active: IC50 [1] | IC50 [2] | IC50 [3] | Ki [3] | IC50 [5] | IC50 [6]

Cc1cc2c(OCC(CNC(C)(C)C)OC(=O)c3ccccc3)cccc2[nH]1 (configuration not stated) [BOPINDOLOL]
Not Active: IC50 [1] | IC50 [2] | IC50 [3] | Ki [3] | IC50 [5] | IC50 [6]

Nc1ccn([C@@H]2O[C@H](CO)[C@@H](O)C2(F)F)c(=O)n1 [GEMCITABINE]
Not Active: IC50 [1] | IC50 [2] | IC50 [3] | Ki [3] | IC50 [5] | IC50 [6]

COc1cc(N)c(Cl)cc1C(=O)NC1CCN(CCCOc2ccc(F)cc2)CC1OC (configuration not stated) [CISAPRIDE]
Not Active: IC50 [1] | IC50 [2] | IC50 [3] | Ki [3] | IC50 [5] | IC50 [6]

O=C(O)c1cccnc1Nc1cccc(C(F)(F)F)c1 [NIFLUMIC ACID]
Not Active: IC50 [1] | IC50 [2] | IC50 [3] | Ki [3] | IC50 [5] | IC50 [6]

CCCNCC(O)COc1ccccc1C(=O)CCc1ccccc1 (configuration not stated) [PROPAFENONE]
Not Active: IC50 [1] | IC50 [2] | IC50 [3] | Ki [3] | IC50 [5] | IC50 [6]
